Test results as given in patent US20240254089A1, “MODULATORS OF MAS-RELATED G-PROTEIN RECEPTOR X4 AND RELATED PRODUCTS AND METHODS” (ESCIENT PHARMACEUTICALS, INC., priority 2020, published 2024).
Like-named read-outs stand apart in the source and are kept apart here.

Target: T1, human MRGPR X4 (Homo sapiens, UniProt Q96LA9)
T1 construct: expressed in transfected cells
Experiment: MRGPR X4 antagonist activity, IP-One Gq HTRF assay in stably transfected HEK cells
Format: cell-based
Method in brief: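 IC50 comes from HTRF IP-1 accumulation in stably transfected HEK cells expressing human MRGPR X4. Compounds (10 uM top, 1:3 serial, 10 points) were co-incubated with 10 μM bilirubin, 20 μM deoxycholic acid or 100 μM conjugated bilirubin in LiCl-containing buffer, pH 8, for 1 h at 37 °C plus 30 min at room temperature.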

[1] = versus 20 μM deoxycholic acid agonist, HEK cells expressing human MRGPR X4, read-out: MRGPRX4 Antagonist Activity

T1 sequence (Q96LA9 whole entry): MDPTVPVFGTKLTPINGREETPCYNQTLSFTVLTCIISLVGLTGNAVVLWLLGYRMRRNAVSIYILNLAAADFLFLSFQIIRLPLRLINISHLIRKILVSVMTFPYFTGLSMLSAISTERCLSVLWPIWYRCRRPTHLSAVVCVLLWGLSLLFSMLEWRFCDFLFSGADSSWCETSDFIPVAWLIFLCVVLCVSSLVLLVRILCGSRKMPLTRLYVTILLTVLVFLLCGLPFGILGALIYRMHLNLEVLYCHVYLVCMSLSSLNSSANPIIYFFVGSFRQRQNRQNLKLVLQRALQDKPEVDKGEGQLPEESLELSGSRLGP

SMILES | IC50 [µM] | IC50 [1] [µM]
Cc1cccc(Cn2cc(C(=O)NCCc3ccc(Cl)c(F)c3)c3ccccc32)c1 [Compound 222] | 1 to 2.5 | 
O=C(NCCc1ccc(Cl)c(F)c1)c1cn(CCN2CCC(F)(F)CC2)c2ccccc12 [Compound 223] | 1 to 2.5 | 
O=C(NCCc1ccc(Cl)c(F)c1)c1cn(Cc2ccccc2F)c2ccccc12 [Compound 224] | > 2.5 | 
Cc1ccccc1Cn1cc(C(=O)NCCc2cccnc2)c2ccccc21 [Compound 225] | > 2.5 | 
COc1ccccc1Cn1cc(C(=O)NCCc2cccnc2)c2ccccc21 [Compound 226] | > 2.5 | 
Cc1c(C(=O)NCCc2cccnc2)c2ccccc2n1Cc1ccc(Cl)cc1 [Compound 227] | > 2.5 | 
COC1CN(CCn2cc(C(=O)NCCc3ccccn3)c3ccccc32)C1 [Compound 228] | > 2.5 | 
Cc1ccc(Cn2cc(C(=O)NCc3ccccn3)c3ccccc32)cc1 [Compound 229] | > 2.5 | 
O=C(NCC1(c2cccnc2)CC1)c1cn(Cc2ccc(Cl)cc2)c2ccccc12 [Compound 230] |  | > 2.5
Cc1ccc(Cn2cc(C(=O)NCc3ccncc3)c3ccccc32)cc1 [Compound 231] | > 2.5 | 
CC(=O)c1cccc(Cn2cc(C(=O)NCCc3cccnc3)c3ccccc32)c1 [Compound 232] | > 2.5 | 
CC(C)(CNC(=O)c1cn(Cc2ccc(Cl)cc2)c2ccccc12)c1cccnc1 [Compound 233] | > 2.5 | 
O=C(NCCc1ccccn1)c1cn(Cc2ccccc2)c2ccccc12 [Compound 234] | > 2.5 | 
N#Cc1ccccc1Cn1cc(C(=O)NCCc2ccc(Cl)c(F)c2)c2ccccc21 [Compound 235] | > 2.5 | 
O=C(NCCc1ccc(F)cc1)c1cn(Cc2cccc(F)c2)c2ccccc12 [Compound 236] | > 2.5 | 
O=C(CS(=O)(=O)c1cn(Cc2ccc(Cl)cc2)c2ccccc12)Nc1ccccc1F [Compound 237, 2-((1-(4-chlorobenzyl)-1H-indol-3-yl)sulfonyl)-N-(2-fluorophenyl)acetamide] |  | 0.1 to 0.5
COc1cccc(NC(=O)CS(=O)(=O)c2cn(Cc3ccc(Cl)cc3)c3ccccc23)c1 [Compound 238] |  | 0.1 to 0.5
O=C(CS(=O)(=O)c1cn(Cc2ccc(Cl)cc2)c2ccccc12)Nc1cccnc1 [Compound 239] |  | 0.1 to 0.5
O=C(CS(=O)(=O)c1cn(Cc2ccc(Cl)cc2)c2ccccc12)Nc1cccc(F)c1 [Compound 240] |  | 0.1 to 0.5

SMILES | IC50 [µM] | IC50 [1] [µM]
O=C(CS(=O)(=O)c1cn(Cc2ccc(Cl)cc2)c2ccccc12)Nc1ccccn1 [Compound 241] |  | 0.1 to 0.5
O=C(CS(=O)(=O)c1cn(Cc2ccc(Cl)cc2)c2ccccc12)Nc1ccccc1 [Compound 242] |  | 0.501 to 1
Cc1cccc(NC(=O)CS(=O)(=O)c2cn(Cc3ccc(Cl)cc3)c3ccccc23)c1 [Compound 243] |  | 0.501 to 1
O=C(CS(=O)(=O)c1cn(Cc2ccc(Cl)cc2)c2ccccc12)Nc1ccccc1Cl [Compound 244] |  | 0.501 to 1
O=C(CS(=O)(=O)c1cn(Cc2ccc(Cl)cc2)c2ccccc12)Nc1ccc(F)cc1 [Compound 245] |  | 0.501 to 1
COc1ccccc1NC(=O)CS(=O)(=O)c1cn(Cc2ccc(Cl)cc2)c2ccccc12 [Compound 246] |  | 1 to 2.5
Cc1ccc(NC(=O)CS(=O)(=O)c2cn(Cc3ccc(Cl)cc3)c3ccccc23)cc1 [Compound 247] |  | 1 to 2.5
CC(C)NC(=O)CS(=O)(=O)c1cn(Cc2ccc(Cl)cc2)c2ccccc12 [Compound 248] |  | 1 to 2.5
O=C(CS(=O)(=O)c1cn(Cc2ccc(Cl)cc2)c2ccccc12)Nc1ccc(Cl)c(Cl)c1 [Compound 249] |  | 1 to 2.5
CNC(=O)CS(=O)(=O)c1cn(Cc2ccc(Cl)cc2)c2ccccc12 [Compound 250] |  | 1 to 2.5
O=C(CS(=O)(=O)c1cn(Cc2ccc(Cl)cc2)c2ccccc12)Nc1ccc(Cl)cc1Cl [Compound 251] |  | 1 to 2.5
CN(C)C(=O)CS(=O)(=O)c1cn(Cc2ccc(Cl)cc2)c2ccccc12 [Compound 252] |  | 1 to 2.5
O=C(CS(=O)(=O)c1cn(Cc2ccc(Cl)cc2)c2ccccc12)Nc1cccc(Cl)c1 [Compound 253] |  | 1 to 2.5
Cc1cccc(NC(=O)CS(=O)(=O)c2cn(CCN3CCC(F)(F)C3)c3ccccc23)c1 [Compound 254] |  | 1 to 2.5
Cc1ccccc1NC(=O)CS(=O)(=O)c1cn(Cc2ccc(Cl)cc2)c2ccccc12 [Compound 255] |  | > 2.5
O=C(CS(=O)(=O)c1cn(Cc2ccc(Cl)cc2)c2ccccc12)Nc1ccc(Cl)cc1 [Compound 256] |  | > 2.5
COc1ccc(C)c(S(=O)(=O)NC(=O)c2nn(Cc3cccc(F)c3)c3ccccc23)c1 [Compound 257] |  | > 2.5
Cc1ccccc1S(=O)(=O)NC(=O)c1nn(Cc2ccc(OC(F)F)cc2)c2ccccc12 [Compound 258] | 0.1 to 0.5 | 
Cc1cc(S(=O)(=O)NC(=O)c2nn(Cc3ccc(OC(F)F)cc3)c3ccccc23)ccc1C#N [Compound 259] |  | 0.1 to 0.5

SMILES | IC50 [µM] | IC50 [1] [µM]
Cc1cccc(S(=O)(=O)NC(=O)c2nn(Cc3ccccc3C#N)c3ccccc23)c1 [Compound 260] |  | 0.501 to 1
O=C(NS(=O)(=O)c1ccc(Cl)cc1Cl)c1nn(Cc2cccc(F)c2)c2ccccc12 [Compound 261] | 0.501 to 1 | 
O=C(NS(=O)(=O)c1ccccc1C(F)(F)F)c1nn(Cc2ccc(OC(F)F)cc2)c2ccccc12 [Compound 262] |  | 0.501 to 1
Cc1cc(S(=O)(=O)NC(=O)c2nn(Cc3ccc(C(F)(F)F)cc3Cl)c3ccccc23)ccc1C#N [Compound 263] |  | 0.501 to 1
Cc1ccc(CS(=O)(=O)NC(=O)c2nn(Cc3ccc(Cl)cc3)c3ccccc23)cc1 [Compound 264] |  | 0.501 to 1
O=C(NS(=O)(=O)c1cccc(C(F)(F)F)c1)c1nn(Cc2ccc(OC(F)F)cc2)c2ccccc12 [Compound 265] |  | 0.501 to 1
O=C(NS(=O)(=O)c1ccc(F)cc1)c1nn(Cc2ccc(OC(F)F)cc2)c2ccccc12 [Compound 266] | 0.501 to 1 | 
O=C(NS(=O)(=O)c1cccc(F)c1)c1nn(Cc2ccc(OC(F)F)cc2)c2ccccc12 [Compound 267] |  | 0.501 to 1
Cc1cc(C)cc(S(=O)(=O)NC(=O)c2nn(Cc3ccc(OC(F)F)cc3)c3ccccc23)c1 [Compound 268] |  | 0.501 to 1
O=C(NS(=O)(=O)c1ccccc1F)c1nn(Cc2ccc(OC(F)F)cc2)c2ccccc12 [Compound 269] |  | 1 to 2.5
Cc1cccc(S(=O)(=O)NC(=O)c2nn(Cc3ccc(OC(F)F)cc3)c3ccccc23)c1 [Compound 270] | 1 to 2.5 | 
Cc1nc(S(=O)(=O)NC(=O)c2nn(Cc3ccc(Cl)cc3)c3ccccc23)sc1C [Compound 271] |  | 1 to 2.5
Cc1cccc(S(=O)(=O)NC(=O)c2nn(Cc3ccc(OC(F)(F)F)cc3)c3ccccc23)c1 [Compound 272] |  | 1 to 2.5
Cc1cccc(S(=O)(=O)NC(=O)c2nn(Cc3ccc(C#N)cc3)c3ccccc23)c1 [Compound 273] |  | 1 to 2.5
Cc1cc(F)cc(S(=O)(=O)NC(=O)c2nn(Cc3ccc(OC(F)F)cc3)c3ccccc23)c1 [Compound 274] |  | 1 to 2.5
COc1ccc(S(=O)(=O)NC(=O)c2nn(Cc3ccc(OC(F)F)cc3)c3ccccc23)cc1C [Compound 275] |  | 1 to 2.5
O=C(NS(=O)(=O)c1ccc(C(F)(F)F)cc1)c1nn(Cc2ccc(OC(F)F)cc2)c2ccccc12 [Compound 276] |  | 1 to 2.5
COC(=O)c1ccc(S(=O)(=O)NC(=O)c2nn(Cc3ccc(OC(F)F)cc3)c3ccccc23)cc1 [Compound 277] |  | 1 to 2.5
Cc1cccc(S(=O)(=O)NC(=O)c2nn(Cc3ccc(OC(F)F)cc3)c3ccccc23)c1F [Compound 278] |  | 1 to 2.5
